The text below walks through data of patent publication EP4810052A2, “HCRHR2 SELECTIVE POLYPEPTIDES” (Gubra A/S, priority 2023, dated 2026).

The target of one assay is T1, hCRHR2 (Homo sapiens, UniProt Q13324).
T1 sequence (Q13324 1-411): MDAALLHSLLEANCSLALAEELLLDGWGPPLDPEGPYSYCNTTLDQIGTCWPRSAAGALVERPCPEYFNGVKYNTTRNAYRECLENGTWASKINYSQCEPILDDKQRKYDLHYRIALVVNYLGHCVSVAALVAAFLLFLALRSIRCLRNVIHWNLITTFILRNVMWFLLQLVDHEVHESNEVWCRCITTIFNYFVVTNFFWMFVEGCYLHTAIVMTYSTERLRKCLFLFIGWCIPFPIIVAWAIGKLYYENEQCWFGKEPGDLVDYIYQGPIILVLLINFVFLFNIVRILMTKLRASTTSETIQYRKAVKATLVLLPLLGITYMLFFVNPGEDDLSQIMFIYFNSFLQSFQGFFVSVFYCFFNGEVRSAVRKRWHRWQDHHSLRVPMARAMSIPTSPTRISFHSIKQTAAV
The assay can be described thus: HTRF cAMP assay, determination of hCRHR2 potency (peptide libraries 5 conc., purified peptides 11 conc.). In kind it is cell-based. In a few lines:
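Agonist peptides are added to suspended, freshly thawed CHO-K1 cells that stably carry the human receptor. Intracellular cAMP competes with d2-cAMP for a cryptate-tagged antibody, lowering the FRET signal. A variable-slope sigmoid curve is fitted to obtain EC50.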

Another assay addresses T2, hCRHR1 (Homo sapiens, UniProt P34998).
T2 sequence (P34998 24-415): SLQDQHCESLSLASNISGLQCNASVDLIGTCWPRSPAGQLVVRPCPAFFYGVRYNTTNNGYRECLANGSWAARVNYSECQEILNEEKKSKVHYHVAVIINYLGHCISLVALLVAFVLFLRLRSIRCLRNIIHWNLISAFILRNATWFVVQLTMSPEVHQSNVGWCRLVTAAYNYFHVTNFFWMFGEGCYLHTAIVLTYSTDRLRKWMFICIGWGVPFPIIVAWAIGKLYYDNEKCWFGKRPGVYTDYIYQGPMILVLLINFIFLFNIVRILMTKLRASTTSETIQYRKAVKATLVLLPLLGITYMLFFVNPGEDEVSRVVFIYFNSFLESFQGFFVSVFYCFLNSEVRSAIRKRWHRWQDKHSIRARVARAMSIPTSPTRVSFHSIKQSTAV
The assay can be described thus: HTRF cAMP assay, determination of hCRHR1 potency (peptide libraries 5 conc., purified peptides 11 conc.). In kind it is cell-based. In a few lines:
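CHO-K1 cells stably expressing human CRHR1, thawed from frozen stocks just before use, were stimulated in suspension with agonist peptides. cAMP was measured by HTRF competitive immunoassay (cryptate anti-cAMP antibody vs d2-cAMP).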
In general terms: TR-FRET usually uses a lanthanide donor and a delayed reading to cut background.

The mark [1] stands for this setting: Table 3, matched molecular pairs X^38 L vs Nle, peptide library of Example 4, read-out: hCRHR2 pEC50 (converted).
Setting [2] is: Table 3, matched molecular pairs X^38 L vs Nle, peptide library of Example 4, read-out: hCRHR1 pEC50 (converted).
The mark [3] stands for this setting: Table 4, library peptides having X^38 = Nle, read-out: hCRHR2 pEC50 (converted).
The mark [4] stands for this setting: Table 4, library peptides having X^38 = Nle, read-out: hCRHR1 pEC50 (converted).

Where two headings read alike, the source gives them in different places. Starred links: 1 amine or outer side, 2 acyl side, 3 side chain; linkers in the order of their positions; H or OH if unused. Non-standard residues stand in square brackets, D forms with d. Residues, ends and D or L forms follow the SMILES beside them. Groups on a side chain read outwards from the residue. *: point of attachment. C20 diacid = O=C(O)CCCCCCCCCCCCCCCCCCC(=O)*; Pro(cis-4-F) = O=C(O)[C@@H]1C[C@H](F)CN1; γGlu = O=C(O)[C@H](CCC(=O)[*:2])N[*:1]; NMeI = CC[C@H](C)[C@H](NC)C(=O)O; Nle = CCCC[C@H](N)C(=O)O; Ac5c = NC1(C(=O)O)CCCC1; AEEA = NCCOCCOCC(=O)O; Aib = CC(C)(N)C(=O)O

As for `CC[C@H](C)[C@H](N)C(=O)N[C@H](C(=O)N[C@@H](CC(C)C)C(=O)N[C@@H](CO)C(=O)N[C@@H](CC(C)C)C(=O)N[C@@H](CC(=O)O)C(=O)N[C@H](C(=O)N1CCC[C@H]1C(=O)N[C@H](C(=O)NCC(=O)N[C@@H](CC(C)C)C(=O)N[C@@H](CC(C)C)C(=O)N[C@@H](CCC(N)=O)C(=O)N[C@H](C(=O)N[C@@H](CC(C)C)C(=O)N[C@@H](CC(C)C)C(=O)N[C@@H](CCC(=O)O)C(=O)N[C@@H](CCC(N)=O)C(=O)N[C@@H](C)C(=O)N[C@@H](CCCNC(=N)N)C(=O)N[C@@H](C)C(=O)N[C@@H](CCCNC(=N)N)C(=O)N[C@@H](C)C(=O)N[C@@H](CCC(N)=O)C(=O)N[C@@H](CCCNC(=N)N)C(=O)N[C@@H](CCC(N)=O)C(=O)N[C@@H](CCC(N)=O)C(=O)N[C@@H](C)C(=O)N[C@@H](CCCCNC(=O)COCCOCCNC(=O)COCCOCCNC(=O)CC[C@H](NC(=O)CC[C@H](NC(=O)CCCCCCCCCCCCCCCCCCC(=O)O)C(=O)O)C(=O)O)C(=O)N[C@H](C(=O)N[C@@H](CC(N)=O)C(=O)N[C@@H](C)C(=O)N[C@@H](CCC(=O)O)C(=O)N[C@H](C(=O)N[C@@H](CC(C)C)C(=O)N[C@@H](C)C(=O)N[C@@H](CCC(=O)O)C(=O)N[C@H](C(N)=O)C(C)C)[C@@H](C)CC)[C@@H](C)O)[C@@H](C)CC)[C@@H](C)CC)C(C)C)C(C)C` [SEQ ID NO: 46] (H-IVLSLDVPIGLLQILLEQARARAQRQQAK([AEEA-AEEA-γGlu-γGlu-C20 diacid])TNAEILAEV-NH2), the values for the EC50 on hCRHR2 (setting [1]) and at hCRHR1 (setting [2]) were 0.316 nM and 2510 nM, respectively.

Take `CC[C@H](C)[C@H](N)C(=O)N[C@H](C(=O)N[C@@H](CC(C)C)C(=O)N[C@@H](CO)C(=O)N[C@@H](CC(C)C)C(=O)N[C@@H](CC(=O)O)C(=O)NC1(C(=O)N2C[C@@H](F)C[C@H]2C(=O)N[C@H](C(=O)NCC(=O)N[C@@H](CC(C)C)C(=O)N[C@@H](CC(C)C)C(=O)N[C@@H](CCC(N)=O)C(=O)N[C@H](C(=O)N[C@@H](CC(C)C)C(=O)N[C@@H](CC(C)C)C(=O)N[C@@H](CCC(=O)O)C(=O)N[C@@H](CCC(N)=O)C(=O)N[C@@H](C)C(=O)N[C@@H](CCCNC(=N)N)C(=O)N[C@@H](C)C(=O)N[C@@H](CCCNC(=N)N)C(=O)N[C@@H](C)C(=O)N[C@@H](C)C(=O)N[C@@H](CCCNC(=N)N)C(=O)N[C@@H](CCC(=O)O)C(=O)N[C@@H](CCC(N)=O)C(=O)N[C@@H](C)C(=O)N[C@@H](CCCCNC(=O)COCCOCCNC(=O)COCCOCCNC(=O)CC[C@H](NC(=O)CC[C@H](NC(=O)CCCCCCCCCCCCCCCCCCC(=O)O)C(=O)O)C(=O)O)C(=O)N[C@H](C(=O)N[C@@H](CC(N)=O)C(=O)N[C@@H](C)C(=O)N[C@@H](CCC(=O)O)C(=O)N[C@H](C(=O)N[C@@H](CC(C)C)C(=O)N[C@@H](C)C(=O)N[C@@H](CCC(=O)O)C(=O)N[C@H](C(N)=O)C(C)C)[C@@H](C)CC)[C@@H](C)O)[C@@H](C)CC)[C@@H](C)CC)CCCC1)C(C)C` [compound 86] (H-IVLSLD[Ac5c][Pro(cis-4-F)]IGLLQILLEQARARAAREQAK([AEEA-AEEA-γGlu-γGlu-C20 diacid])TNAEILAEV-NH2): the EC50 was 0.631 nM at hCRHR2 (library peptides, matched molecular pairs L vs Nle in position X^38, read-out: Potency hCRHR2 pEC50 (converted)) and 3.16 nM on hCRHR1 (library peptides, matched molecular pairs L vs Nle in position X^38, read-out: Potency hCRHR1 pEC50 (converted)).

For `CCCC[C@H](NC(=O)[C@@H](NC(=O)[C@H](CCC(=O)O)NC(=O)[C@H](C)NC(=O)[C@H](CC(N)=O)NC(=O)[C@@H](NC(=O)[C@H](CCCCNC(=O)COCCOCCNC(=O)COCCOCCNC(=O)CC[C@H](NC(=O)CC[C@H](NC(=O)CCCCCCCCCCCCCCCCCCC(=O)O)C(=O)O)C(=O)O)NC(=O)[C@H](C)NC(=O)[C@H](CCC(N)=O)NC(=O)[C@H](CCC(=O)O)NC(=O)[C@H](CCCNC(=N)N)NC(=O)[C@H](CC(C)C)NC(=O)[C@H](C)NC(=O)[C@H](CCCNC(=N)N)NC(=O)[C@H](C)NC(=O)[C@H](CCCNC(=N)N)NC(=O)[C@H](C)NC(=O)[C@H](CCC(N)=O)NC(=O)[C@H](CCC(=O)O)NC(=O)[C@H](CC(C)C)NC(=O)[C@H](CC(C)C)NC(=O)[C@@H](NC(=O)[C@H](CCC(N)=O)NC(=O)[C@H](CC(C)C)NC(=O)[C@H](CC(C)C)NC(=O)CNC(=O)[C@@H](NC(=O)[C@@H]1CCCN1C(=O)[C@@H](NC(=O)[C@H](CC(=O)O)NC(=O)[C@H](CC(C)C)NC(=O)[C@H](CO)NC(=O)[C@H](CC(C)C)NC(=O)[C@@H](NC(=O)[C@@H](N)[C@@H](C)CC)C(C)C)C(C)C)[C@@H](C)CC)[C@@H](C)CC)[C@@H](C)O)[C@@H](C)CC)C(=O)N[C@@H](C)C(=O)N[C@@H](CCC(=O)O)C(=O)N[C@H](C(N)=O)C(C)C` [SEQ ID NO: 40] (H-IVLSLDVPIGLLQILLEQARARALREQAK([AEEA-AEEA-γGlu-γGlu-C20 diacid])TNAEI[Nle]AEV-NH2), the EC50 on hCRHR2 (setting [1]) is 0.398 nM; at hCRHR1 (setting [2]), 25.1 nM.

As to `CCCC[C@H](NC(=O)[C@@H](NC(=O)[C@H](CCC(=O)O)NC(=O)C(C)(C)NC(=O)[C@H](CC(N)=O)NC(=O)[C@@H](NC(=O)[C@H](CCCCNC(=O)COCCOCCNC(=O)COCCOCCNC(=O)CC[C@H](NC(=O)CC[C@H](NC(=O)CCCCCCCCCCCCCCCCCCC(=O)O)C(=O)O)C(=O)O)NC(=O)[C@H](C)NC(=O)[C@H](CCC(N)=O)NC(=O)[C@H](CCC(=O)O)NC(=O)[C@H](CCCNC(=N)N)NC(=O)[C@H](C)NC(=O)[C@H](C)NC(=O)[C@H](CCCNC(=N)N)NC(=O)[C@H](C)NC(=O)[C@H](CCCNC(=N)N)NC(=O)[C@H](C)NC(=O)[C@H](CCC(N)=O)NC(=O)[C@@H](NC(=O)[C@H](CC(C)C)NC(=O)[C@H](CC(C)C)NC(=O)[C@@H](NC(=O)[C@H](CCC(N)=O)NC(=O)[C@H](CC(C)C)NC(=O)[C@H](CC(C)C)NC(=O)CNC(=O)[C@@H](NC(=O)[C@@H]1CCCN1C(=O)[C@@H](NC(=O)[C@H](CC(=O)O)NC(=O)[C@H](CC(C)C)NC(=O)[C@H](CO)NC(=O)[C@H](CC(C)C)NC(=O)[C@@H](NC(=O)[C@@H](NC)[C@@H](C)CC)C(C)C)C(C)C)[C@@H](C)CC)[C@@H](C)CC)[C@@H](C)O)[C@@H](C)O)[C@@H](C)CC)C(=O)N[C@@H](C)C(=O)N[C@@H](CCC(=O)O)C(=O)N[C@H](C(N)=O)C(C)C` [compound 217] (H-[NMeI]VLSLDVPIGLLQILLTQARARAAREQAK([AEEA-AEEA-γGlu-γGlu-C20 diacid])TN[Aib]EI[Nle]AEV-NH2), the EC50 is 0.0398 nM at hCRHR2 (setting [3]) and 1000 nM at hCRHR1 (setting [4]).

Take `CCCC[C@H](NC(=O)[C@@H](NC(=O)[C@H](CCC(=O)O)NC(=O)[C@H](C)NC(=O)[C@H](CC(N)=O)NC(=O)C(C)(C)NC(=O)[C@H](CCCCNC(=O)COCCOCCNC(=O)COCCOCCNC(=O)CC[C@H](NC(=O)CC[C@H](NC(=O)CCCCCCCCCCCCCCCCCCC(=O)O)C(=O)O)C(=O)O)NC(=O)[C@H](C)NC(=O)[C@H](CCC(N)=O)NC(=O)[C@H](CCC(=O)O)NC(=O)[C@H](CCCNC(=N)N)NC(=O)[C@H](C)NC(=O)[C@H](C)NC(=O)[C@H](CCCNC(=N)N)NC(=O)[C@H](C)NC(=O)[C@H](CCCNC(=N)N)NC(=O)[C@H](C)NC(=O)[C@H](CCC(N)=O)NC(=O)[C@H](Cc1c[nH]cn1)NC(=O)[C@H](CC(C)C)NC(=O)[C@H](CC(C)C)NC(=O)[C@@H](NC(=O)[C@H](CCC(N)=O)NC(=O)[C@H](CC(C)C)NC(=O)[C@H](CC(C)C)NC(=O)CNC(=O)[C@@H](NC(=O)[C@@H]1CCCN1C(=O)[C@@H](NC(=O)[C@H](CC(=O)O)NC(=O)[C@H](CC(C)C)NC(=O)[C@H](CO)NC(=O)[C@H](CC(C)C)NC(=O)[C@@H](NC(=O)[C@@H](NC)[C@@H](C)CC)C(C)C)C(C)C)[C@@H](C)CC)[C@@H](C)CC)[C@@H](C)CC)C(=O)N[C@@H](C)C(=O)N[C@@H](CCC(=O)O)C(=O)N[C@H](C(N)=O)C(C)C` [compound 126] (H-[NMeI]VLSLDVPIGLLQILLHQARARAAREQAK([AEEA-AEEA-γGlu-γGlu-C20 diacid])[Aib]NAEI[Nle]AEV-NH2): the values for the EC50 on hCRHR2 (setting [3]) and on hCRHR1 (setting [4]) were 0.01 nM and 794 nM, respectively.
